pKd: −log10 of the molar value. Active and inactive are the calls of the source.
Columns and labels:
[1] = target: T1, ATP-dependent RNA helicase DHX30 (Homo sapiens, UniProt Q7L2E3)
T1 sequence (Q7L2E3 whole entry): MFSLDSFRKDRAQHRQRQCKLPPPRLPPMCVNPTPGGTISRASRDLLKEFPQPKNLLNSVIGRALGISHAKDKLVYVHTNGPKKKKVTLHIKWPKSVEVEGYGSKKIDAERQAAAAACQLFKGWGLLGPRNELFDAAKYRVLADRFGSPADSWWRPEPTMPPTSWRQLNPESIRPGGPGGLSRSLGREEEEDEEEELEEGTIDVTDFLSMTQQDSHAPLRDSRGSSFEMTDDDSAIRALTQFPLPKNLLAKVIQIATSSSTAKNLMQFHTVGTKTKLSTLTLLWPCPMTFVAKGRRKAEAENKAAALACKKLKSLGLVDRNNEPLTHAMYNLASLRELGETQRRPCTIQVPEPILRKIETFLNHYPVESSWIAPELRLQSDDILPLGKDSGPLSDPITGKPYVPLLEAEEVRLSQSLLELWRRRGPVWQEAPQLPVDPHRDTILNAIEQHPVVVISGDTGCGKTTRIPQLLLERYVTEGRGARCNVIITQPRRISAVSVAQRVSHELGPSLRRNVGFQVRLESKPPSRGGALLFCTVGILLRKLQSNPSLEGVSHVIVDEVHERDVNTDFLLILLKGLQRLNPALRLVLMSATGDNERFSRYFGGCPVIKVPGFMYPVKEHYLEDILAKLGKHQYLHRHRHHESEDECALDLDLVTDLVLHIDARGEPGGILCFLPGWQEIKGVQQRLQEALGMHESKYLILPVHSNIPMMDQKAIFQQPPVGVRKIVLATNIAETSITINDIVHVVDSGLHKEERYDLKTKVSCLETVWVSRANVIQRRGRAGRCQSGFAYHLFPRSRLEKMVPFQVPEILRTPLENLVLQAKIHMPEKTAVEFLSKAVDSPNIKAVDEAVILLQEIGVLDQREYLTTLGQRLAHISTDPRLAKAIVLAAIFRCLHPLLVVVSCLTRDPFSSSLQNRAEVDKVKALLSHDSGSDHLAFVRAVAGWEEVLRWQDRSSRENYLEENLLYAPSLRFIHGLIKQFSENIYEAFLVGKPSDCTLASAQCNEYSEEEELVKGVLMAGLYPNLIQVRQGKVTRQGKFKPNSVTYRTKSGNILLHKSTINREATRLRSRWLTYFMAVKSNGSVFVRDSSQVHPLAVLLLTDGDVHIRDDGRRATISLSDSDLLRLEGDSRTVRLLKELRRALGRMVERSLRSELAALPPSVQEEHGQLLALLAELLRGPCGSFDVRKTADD

[2] = target: Serine/threonine-protein kinase 24 (Homo sapiens, UniProt Q9Y6E0)
[3] = target: Serine/threonine-protein kinase PAK 6 (Homo sapiens, UniProt Q9NQU5)
[4] = target: T2, Thyroid hormone receptor-associated protein 3 (Homo sapiens, UniProt Q9Y2W1)
T2 sequence (Q9Y2W1 whole entry): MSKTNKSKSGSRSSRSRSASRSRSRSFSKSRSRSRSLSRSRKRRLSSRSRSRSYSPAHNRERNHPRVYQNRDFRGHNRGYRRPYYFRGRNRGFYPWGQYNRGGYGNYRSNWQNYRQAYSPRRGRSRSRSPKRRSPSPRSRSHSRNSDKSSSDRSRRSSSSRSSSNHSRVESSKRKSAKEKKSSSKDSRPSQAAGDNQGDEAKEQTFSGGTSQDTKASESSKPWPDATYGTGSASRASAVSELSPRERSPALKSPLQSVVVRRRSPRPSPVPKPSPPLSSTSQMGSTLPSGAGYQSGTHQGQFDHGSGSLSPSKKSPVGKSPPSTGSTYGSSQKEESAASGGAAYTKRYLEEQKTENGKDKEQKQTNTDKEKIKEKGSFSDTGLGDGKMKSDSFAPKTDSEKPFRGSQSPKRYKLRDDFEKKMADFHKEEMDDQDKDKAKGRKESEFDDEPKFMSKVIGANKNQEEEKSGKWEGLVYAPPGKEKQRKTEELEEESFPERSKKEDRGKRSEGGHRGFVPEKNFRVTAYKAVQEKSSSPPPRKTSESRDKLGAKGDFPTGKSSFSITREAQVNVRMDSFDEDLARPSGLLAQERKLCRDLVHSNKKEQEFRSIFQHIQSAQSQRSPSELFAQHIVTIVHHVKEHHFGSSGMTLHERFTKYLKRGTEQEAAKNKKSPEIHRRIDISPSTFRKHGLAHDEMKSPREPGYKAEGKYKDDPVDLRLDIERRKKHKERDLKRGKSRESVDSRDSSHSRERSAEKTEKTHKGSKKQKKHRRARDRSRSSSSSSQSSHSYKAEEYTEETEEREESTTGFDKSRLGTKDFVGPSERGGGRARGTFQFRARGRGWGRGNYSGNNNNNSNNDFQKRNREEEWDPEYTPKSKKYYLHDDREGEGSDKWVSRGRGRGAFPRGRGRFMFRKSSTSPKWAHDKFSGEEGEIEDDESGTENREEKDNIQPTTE

[5] = target: Mitogen-activated protein kinase 14 (Homo sapiens, UniProt Q16539)
[6] = target: Rho-associated protein kinase 1 (Homo sapiens, UniProt Q13464)
[7] = target: High affinity nerve growth factor receptor (Homo sapiens, UniProt P04629)
[8] = target: T3, UMP-CMP kinase (Homo sapiens, UniProt P30085)
T3 sequence (P30085 whole entry): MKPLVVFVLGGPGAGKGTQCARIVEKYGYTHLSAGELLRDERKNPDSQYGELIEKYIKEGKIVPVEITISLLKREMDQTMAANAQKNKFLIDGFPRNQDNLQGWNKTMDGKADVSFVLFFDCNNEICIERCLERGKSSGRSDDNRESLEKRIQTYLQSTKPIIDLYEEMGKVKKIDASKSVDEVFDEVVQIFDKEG

[9] = target: PAS domain-containing serine/threonine-protein kinase (Homo sapiens, UniProt Q96RG2)
Further: in the data inactive means no Kd found up to 30 µM.

Sequence of Serine/threonine-protein kinase PAK 6 (Q9NQU5 whole entry): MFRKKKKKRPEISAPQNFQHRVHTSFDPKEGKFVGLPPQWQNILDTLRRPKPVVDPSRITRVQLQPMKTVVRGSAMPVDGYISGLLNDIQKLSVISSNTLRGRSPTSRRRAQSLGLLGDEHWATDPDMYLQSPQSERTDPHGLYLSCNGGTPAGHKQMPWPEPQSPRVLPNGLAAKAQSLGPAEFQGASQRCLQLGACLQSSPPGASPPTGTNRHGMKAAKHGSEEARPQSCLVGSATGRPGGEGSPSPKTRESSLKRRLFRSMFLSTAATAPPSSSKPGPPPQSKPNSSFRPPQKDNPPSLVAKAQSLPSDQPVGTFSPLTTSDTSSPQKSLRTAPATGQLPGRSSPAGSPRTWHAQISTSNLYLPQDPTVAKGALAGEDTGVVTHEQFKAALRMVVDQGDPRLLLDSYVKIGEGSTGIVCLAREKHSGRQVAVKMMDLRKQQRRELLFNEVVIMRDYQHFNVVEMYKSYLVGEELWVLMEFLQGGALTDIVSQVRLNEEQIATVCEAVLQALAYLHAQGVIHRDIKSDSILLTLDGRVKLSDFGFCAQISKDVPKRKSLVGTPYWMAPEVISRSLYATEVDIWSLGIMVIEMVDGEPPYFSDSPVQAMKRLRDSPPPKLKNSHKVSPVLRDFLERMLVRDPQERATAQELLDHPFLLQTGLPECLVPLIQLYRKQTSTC
Sequence of High affinity nerve growth factor receptor (P04629 whole entry): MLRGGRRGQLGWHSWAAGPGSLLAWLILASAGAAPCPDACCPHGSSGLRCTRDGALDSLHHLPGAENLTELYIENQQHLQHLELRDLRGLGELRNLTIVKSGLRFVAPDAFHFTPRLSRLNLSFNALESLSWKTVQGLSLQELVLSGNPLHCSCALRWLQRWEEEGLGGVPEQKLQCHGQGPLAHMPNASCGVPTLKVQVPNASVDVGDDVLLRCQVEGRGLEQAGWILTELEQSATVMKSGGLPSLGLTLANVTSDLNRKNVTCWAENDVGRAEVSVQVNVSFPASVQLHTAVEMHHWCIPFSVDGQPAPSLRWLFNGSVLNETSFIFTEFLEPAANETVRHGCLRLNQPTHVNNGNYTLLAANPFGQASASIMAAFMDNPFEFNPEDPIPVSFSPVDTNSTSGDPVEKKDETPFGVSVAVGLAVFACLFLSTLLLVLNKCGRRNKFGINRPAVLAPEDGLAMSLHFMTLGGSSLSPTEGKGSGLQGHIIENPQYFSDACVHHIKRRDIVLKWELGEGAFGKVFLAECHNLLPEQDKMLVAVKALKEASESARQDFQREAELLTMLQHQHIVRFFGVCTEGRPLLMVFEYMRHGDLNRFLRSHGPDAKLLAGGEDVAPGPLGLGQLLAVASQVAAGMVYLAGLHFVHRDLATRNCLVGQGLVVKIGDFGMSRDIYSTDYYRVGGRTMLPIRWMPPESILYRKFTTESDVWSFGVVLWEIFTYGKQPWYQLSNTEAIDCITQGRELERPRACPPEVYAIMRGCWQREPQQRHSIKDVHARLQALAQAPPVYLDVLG
Sequence of Rho-associated protein kinase 1 (Q13464 whole entry): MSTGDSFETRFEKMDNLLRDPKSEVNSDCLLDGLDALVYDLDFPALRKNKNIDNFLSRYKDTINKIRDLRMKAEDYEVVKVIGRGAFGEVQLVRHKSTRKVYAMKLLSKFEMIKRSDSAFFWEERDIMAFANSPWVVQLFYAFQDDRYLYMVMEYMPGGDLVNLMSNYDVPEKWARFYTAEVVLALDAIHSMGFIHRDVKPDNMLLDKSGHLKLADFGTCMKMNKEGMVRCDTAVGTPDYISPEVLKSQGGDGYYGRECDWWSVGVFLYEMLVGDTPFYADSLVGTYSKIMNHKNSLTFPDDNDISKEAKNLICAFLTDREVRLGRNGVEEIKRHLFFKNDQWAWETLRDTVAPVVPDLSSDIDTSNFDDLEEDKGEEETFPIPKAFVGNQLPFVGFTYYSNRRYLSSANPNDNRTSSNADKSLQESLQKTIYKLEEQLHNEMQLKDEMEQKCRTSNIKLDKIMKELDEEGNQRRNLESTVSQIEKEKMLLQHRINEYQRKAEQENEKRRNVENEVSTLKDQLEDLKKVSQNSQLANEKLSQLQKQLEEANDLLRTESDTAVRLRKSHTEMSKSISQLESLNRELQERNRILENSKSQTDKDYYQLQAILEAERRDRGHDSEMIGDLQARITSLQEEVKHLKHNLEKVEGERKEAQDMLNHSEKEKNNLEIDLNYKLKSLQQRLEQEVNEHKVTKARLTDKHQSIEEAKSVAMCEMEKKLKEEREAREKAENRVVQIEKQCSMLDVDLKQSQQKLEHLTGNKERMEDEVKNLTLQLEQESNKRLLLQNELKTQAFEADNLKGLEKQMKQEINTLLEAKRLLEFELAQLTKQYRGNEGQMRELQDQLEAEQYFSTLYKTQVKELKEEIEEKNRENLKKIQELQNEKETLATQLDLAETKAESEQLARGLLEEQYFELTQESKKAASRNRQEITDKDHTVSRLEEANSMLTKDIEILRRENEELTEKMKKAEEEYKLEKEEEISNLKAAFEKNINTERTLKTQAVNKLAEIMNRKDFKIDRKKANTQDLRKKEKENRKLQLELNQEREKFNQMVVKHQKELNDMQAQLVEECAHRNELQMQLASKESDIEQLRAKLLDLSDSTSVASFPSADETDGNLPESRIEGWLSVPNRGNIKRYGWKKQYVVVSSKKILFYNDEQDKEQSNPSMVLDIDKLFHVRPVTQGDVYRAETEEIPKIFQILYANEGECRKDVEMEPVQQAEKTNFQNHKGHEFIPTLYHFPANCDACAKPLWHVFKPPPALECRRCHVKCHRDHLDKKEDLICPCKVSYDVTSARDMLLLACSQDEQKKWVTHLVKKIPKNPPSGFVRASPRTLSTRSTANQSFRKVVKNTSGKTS
Sequence of Serine/threonine-protein kinase 24 (Q9Y6E0 whole entry): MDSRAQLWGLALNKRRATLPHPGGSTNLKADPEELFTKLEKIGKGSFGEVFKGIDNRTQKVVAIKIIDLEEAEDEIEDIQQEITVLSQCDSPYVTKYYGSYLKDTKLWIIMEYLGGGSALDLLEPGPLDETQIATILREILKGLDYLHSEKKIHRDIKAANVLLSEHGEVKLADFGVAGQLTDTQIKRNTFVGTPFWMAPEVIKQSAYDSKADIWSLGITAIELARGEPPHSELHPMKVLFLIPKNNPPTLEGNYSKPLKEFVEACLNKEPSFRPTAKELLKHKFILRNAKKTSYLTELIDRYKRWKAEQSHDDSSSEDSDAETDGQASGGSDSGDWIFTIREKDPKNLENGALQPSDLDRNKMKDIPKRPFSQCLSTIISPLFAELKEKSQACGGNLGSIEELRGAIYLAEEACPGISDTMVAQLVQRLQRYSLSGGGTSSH
Sequence of PAS domain-containing serine/threonine-protein kinase (Q96RG2 whole entry, the tested form may be a part): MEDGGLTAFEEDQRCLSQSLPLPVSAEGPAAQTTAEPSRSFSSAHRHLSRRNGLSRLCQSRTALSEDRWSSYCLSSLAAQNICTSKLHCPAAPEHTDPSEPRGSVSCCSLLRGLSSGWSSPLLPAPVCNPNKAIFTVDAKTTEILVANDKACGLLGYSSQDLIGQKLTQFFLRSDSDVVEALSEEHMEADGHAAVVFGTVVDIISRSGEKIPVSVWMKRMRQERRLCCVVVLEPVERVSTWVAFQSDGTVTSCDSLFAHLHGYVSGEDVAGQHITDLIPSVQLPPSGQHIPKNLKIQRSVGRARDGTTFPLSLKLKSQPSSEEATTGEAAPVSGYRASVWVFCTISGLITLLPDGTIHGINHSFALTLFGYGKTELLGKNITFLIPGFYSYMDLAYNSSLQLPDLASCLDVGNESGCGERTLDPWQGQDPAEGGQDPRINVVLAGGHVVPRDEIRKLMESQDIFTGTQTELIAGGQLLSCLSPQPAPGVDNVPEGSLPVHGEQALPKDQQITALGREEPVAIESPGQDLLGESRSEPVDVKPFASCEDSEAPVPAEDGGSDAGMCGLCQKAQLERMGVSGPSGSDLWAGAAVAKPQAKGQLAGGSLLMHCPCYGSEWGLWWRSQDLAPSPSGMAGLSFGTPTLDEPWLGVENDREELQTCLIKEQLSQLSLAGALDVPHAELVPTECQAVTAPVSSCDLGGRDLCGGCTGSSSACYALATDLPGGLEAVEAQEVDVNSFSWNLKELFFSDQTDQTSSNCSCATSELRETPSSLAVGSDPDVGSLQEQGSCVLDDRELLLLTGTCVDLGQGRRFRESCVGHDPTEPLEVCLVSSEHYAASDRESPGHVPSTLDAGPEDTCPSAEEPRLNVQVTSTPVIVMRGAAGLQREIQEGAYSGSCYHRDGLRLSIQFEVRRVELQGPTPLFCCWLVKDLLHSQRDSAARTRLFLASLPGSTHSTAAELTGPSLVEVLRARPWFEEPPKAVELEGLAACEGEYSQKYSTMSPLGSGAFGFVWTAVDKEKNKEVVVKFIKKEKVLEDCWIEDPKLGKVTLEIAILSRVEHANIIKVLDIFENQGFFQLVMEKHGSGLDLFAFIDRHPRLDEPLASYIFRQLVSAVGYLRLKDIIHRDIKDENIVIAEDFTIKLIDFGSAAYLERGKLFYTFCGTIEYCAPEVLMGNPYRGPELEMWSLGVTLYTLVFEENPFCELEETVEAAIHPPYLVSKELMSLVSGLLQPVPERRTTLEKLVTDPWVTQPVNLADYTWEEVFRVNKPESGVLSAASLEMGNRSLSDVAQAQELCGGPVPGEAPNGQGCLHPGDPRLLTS
Sequence of Mitogen-activated protein kinase 14 (Q16539 whole entry): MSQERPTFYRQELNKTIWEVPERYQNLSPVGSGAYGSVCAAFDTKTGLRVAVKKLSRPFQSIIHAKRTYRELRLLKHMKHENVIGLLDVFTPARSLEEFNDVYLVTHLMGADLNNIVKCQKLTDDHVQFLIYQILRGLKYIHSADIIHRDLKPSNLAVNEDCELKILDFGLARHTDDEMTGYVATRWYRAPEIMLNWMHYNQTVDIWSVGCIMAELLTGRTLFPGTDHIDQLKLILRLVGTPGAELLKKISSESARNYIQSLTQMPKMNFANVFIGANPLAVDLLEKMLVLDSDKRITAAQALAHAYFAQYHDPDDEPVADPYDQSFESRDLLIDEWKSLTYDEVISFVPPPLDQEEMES

Row | SMILES | Kd [1] | Kd [2] | Kd [3] | Kd [4] | Kd [5] | Kd [6] | Kd [7] | Kd [8] | Kd [9] | pKd [2]
1 | O=c1[nH]c([C@@H]2CCCN2)nc2c1oc1ccc(Cl)cc12 | > 30 µM (inactive) | > 30 µM (inactive) | – | – | – | – | – | – | – | –
2 | CCN(CCCOc1ccc2c(Nc3cc(CC(=O)Nc4cccc(F)c4)n[nH]3)ncnc2c1)CCOP(=O)(O)O [BARASERTIB] | – | > 30 µM (inactive) | > 30 µM (inactive) | > 30 µM (inactive) | – | – | – | – | – | –
3 | COc1cccc(Nc2ncnn3ccc(CN4CC[C@@H](N)[C@H](O)C4)c23)c1 [BMS-690514] | – | > 30 µM (inactive) | – | – | > 30 µM (inactive) | – | – | – | – | –
4 | C[C@@]1(C(=O)Nc2ccc(F)nc2)CCCN1c1nc(Nc2cc(C3CC3)n[nH]2)c2cccn2n1 [BMS-754807] | – | – | – | > 30 µM (inactive) | – | – | – | – | – | –
5 | CCOc1ccn(-c2ccc(F)cc2)c(=O)c1C(=O)Nc1ccc(Oc2ccnc(N)c2Cl)c(F)c1 [BMS-777607] | > 30 µM (inactive) | – | – | – | > 30 µM (inactive) | > 30 µM (inactive) | – | – | – | –
6 | COc1cc2ncnc(Nc3ccc(F)c(Cl)c3)c2cc1NC(=O)/C=C/CN1CCCCC1 [DACOMITINIB ANHYDROUS] | > 30 µM (inactive) | – | – | > 30 µM (inactive) | > 30 µM (inactive) | > 30 µM (inactive) | > 30 µM (inactive) | > 30 µM (inactive) | – | –
7 | CC[C@@](C)(Nc1ccnc(-c2c[nH]c3ncccc23)n1)C(=O)NCC(F)(F)F [DECERNOTINIB] | > 30 µM (inactive) | > 30 µM (inactive) | – | – | > 30 µM (inactive) | 13.5 µM (active) | > 30 µM (inactive) | – | > 30 µM (inactive) | –
8 | CNC(=O)c1ccc(Nc2ncc(C(F)(F)F)c(NCc3nccnc3N(C)S(C)(=O)=O)n2)cc1 [DEFACTINIB] | > 30 µM (inactive) | > 30 µM (inactive) | > 30 µM (inactive) | > 30 µM (inactive) | > 30 µM (inactive) | > 30 µM (inactive) | – | – | – | –
9 | CCc1nc(C(N)=O)c(Nc2ccc(N3CCC(N4CCN(C)CC4)CC3)c(OC)c2)nc1NC1CCOCC1 [GILTERITINIB] | > 30 µM (inactive) | – | – | > 30 µM (inactive) | > 30 µM (inactive) | > 30 µM (inactive) | > 30 µM (inactive) | – | – | 6.64
10 | O=S(=O)(c1cccc2c(O)nccc12)N1CCCNCC1 [HYDROXYFASUDIL] | – | > 30 µM (inactive) | – | > 30 µM (inactive) | – | – | > 30 µM (inactive) | > 30 µM (inactive) | > 30 µM (inactive) | –
11 | COc1cc2ncnc3c2cc1OCCCCCN(C)Cc1ccc(Br)cc1N3 [JNJ-26483327] | > 30 µM (inactive) | – | – | > 30 µM (inactive) | > 30 µM (inactive) | > 30 µM (inactive) | > 30 µM (inactive) | – | – | –
12 | N#CCNC(=O)c1ccc(-c2ccnc(Nc3ccc(N4CCOCC4)cc3)n2)cc1 [MOMELOTINIB] | – | – | – | – | > 30 µM (inactive) | 1.36 µM (active) | > 30 µM (inactive) | > 30 µM (inactive) | > 30 µM (inactive) | –
13 | C=CC(=O)Nc1cc(Nc2nccc(-c3cn(C)c4ccccc34)n2)c(OC)cc1N(C)CCN(C)C [OSIMERTINIB] | > 30 µM (inactive) | – | – | > 30 µM (inactive) | > 30 µM (inactive) | > 30 µM (inactive) | > 30 µM (inactive) | > 30 µM (inactive) | – | –
14 | FC(F)(F)c1ccc(CNc2ccc(Cc3c[nH]c4ncc(Cl)cc34)cn2)cn1 [PEXIDARTINIB] | > 30 µM (inactive) | > 30 µM (inactive) | – | – | > 30 µM (inactive) | > 30 µM (inactive) | > 30 µM (inactive) | – | > 30 µM (inactive) | –
15 | COc1cc(F)c(F)c(Nc2ccc(I)cc2F)c1NS(=O)(=O)C1(C[C@H](O)CO)CC1 [REFAMETINIB] | > 30 µM (inactive) | – | > 30 µM (inactive) | > 30 µM (inactive) | > 30 µM (inactive) | > 30 µM (inactive) | > 30 µM (inactive) | – | > 30 µM (inactive) | –
16 | C=CC(=O)Nc1cccc(Nc2nc(Nc3ccc(N4CCN(C(C)=O)CC4)cc3OC)ncc2C(F)(F)F)c1 [ROCILETINIB] | – | – | – | – | > 30 µM (inactive) | > 30 µM (inactive) | > 30 µM (inactive) | – | – | –
17 | O=C(O)c1ccc2c(c1)nc(Nc1cccc(Cl)c1)c1ccncc12 [SILMITASERTIB] | – | > 30 µM (inactive) | – | > 30 µM (inactive) | > 30 µM (inactive) | – | > 30 µM (inactive) | – | – | –
18 | C=CCN(/C=C1/C(=O)O[C@H](COC)[C@@]2(C)C1=C(O)C(=O)C1=C2[C@H](OC(C)=O)C[C@]2(C)C(=O)CC[C@@H]12)CC=C [SONOLISIB] | – | > 30 µM (inactive) | > 30 µM (inactive) | > 30 µM (inactive) | > 30 µM (inactive) | > 30 µM (inactive) | – | – | – | –
19 | CN1CCN(c2nc(C3=C(c4c[nH]c5ccccc45)C(=O)NC3=O)c3ccccc3n2)CC1 [SOTRASTAURIN] | – | > 30 µM (inactive) | > 30 µM (inactive) | – | > 30 µM (inactive) | > 30 µM (inactive) | > 30 µM (inactive) | – | – | –
20 | CC(C)(O)CC(=O)NCCn1ccc2ncnc(Nc3ccc(Oc4cccc(C(F)(F)F)c4)c(Cl)c3)c21 [TAK-285] | > 30 µM (inactive) | > 30 µM (inactive) | – | – | > 30 µM (inactive) | > 30 µM (inactive) | > 30 µM (inactive) | – | – | –
21 | Cc1cc(C(=O)Nc2cc(Oc3ccc4nc(NC(=O)C5CC5)cn4n3)ccc2C)n(C)n1 [TAK-593] | > 30 µM (inactive) | > 30 µM (inactive) | – | – | > 30 µM (inactive) | > 30 µM (inactive) | > 30 µM (inactive) | – | – | –
22 | COc1cc2c(N3CCN(C(=O)Nc4ccc(OC(C)C)cc4)CC3)ncnc2cc1OCCCN1CCCCC1 [TANDUTINIB] | – | – | – | > 30 µM (inactive) | – | – | – | – | > 30 µM (inactive) | –
23 | CNC(=O)c1cc(COc2nnc(Nc3ccc(Cl)cc3)c3ccoc23)ccn1 [TELATINIB] | – | > 30 µM (inactive) | > 30 µM (inactive) | – | > 30 µM (inactive) | – | > 30 µM (inactive) | – | > 30 µM (inactive) | –
24 | Cc1cc(-c2cc(OC(=O)c3ccccc3)ccc2Cl)cc2nnc(Nc3ccc(OCCN4CCCC4)cc3)nc12 [TG100-801] | > 30 µM (inactive) | – | – | > 30 µM (inactive) | > 30 µM (inactive) | > 30 µM (inactive) | > 30 µM (inactive) | – | > 30 µM (inactive) | –

Reference: ChEMBL document CHEMBL3991601, “The target landscape of clinical kinase drugs” (Science, 2017)
